Measured values as given in patent US12577206B2 (BRISTOL-MYERS SQUIBB COMPANY, priority 2020, dated 2026).

Columns and labels:
human FPR1 = target: T1, human FPR1 (Homo sapiens, UniProt P21462); assay: FPR1 cyclic adenosine monophosphate (cAMP) assay; assay type: cell-based; conditions: CHO cells overexpressing human FPR1; forskolin 10 μM; inhibition of cAMP production; HTRF; read-out: hFPR1 cAMP2 EC50
T1 sequence (P21462 1-350): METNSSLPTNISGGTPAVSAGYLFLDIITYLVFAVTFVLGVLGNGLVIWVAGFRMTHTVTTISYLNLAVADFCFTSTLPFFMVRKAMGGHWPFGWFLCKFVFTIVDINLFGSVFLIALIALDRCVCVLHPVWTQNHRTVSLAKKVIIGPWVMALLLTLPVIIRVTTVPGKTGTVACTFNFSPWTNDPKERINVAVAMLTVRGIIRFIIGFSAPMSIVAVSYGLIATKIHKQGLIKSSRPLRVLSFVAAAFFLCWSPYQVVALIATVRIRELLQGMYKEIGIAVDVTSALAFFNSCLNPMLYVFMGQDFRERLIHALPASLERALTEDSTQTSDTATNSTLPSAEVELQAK
In short: (§1)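 CHO/hFPR1 4,000 cells/well, forskolin 10 μM final; CHO/hFPR2 2,000 cells/well, forskolin 5 μM final. IBMX 200 μM, DMSO 1%, DPBS + Ca/Mg + 0.1% BSA, 30 min rt. HTRF cAMP; 4-PL fit.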

human FPR2 = target: T2, human FPR2 (Homo sapiens, UniProt P25090); assay: FPR2 cyclic adenosine monophosphate (cAMP) assay; assay type: cell-based; conditions: CHO cells overexpressing human FPR2; forskolin 5 μM; inhibition of cAMP production; HTRF; read-out: hFPR2 cAMP2 EC50
T2 sequence (P25090 1-351): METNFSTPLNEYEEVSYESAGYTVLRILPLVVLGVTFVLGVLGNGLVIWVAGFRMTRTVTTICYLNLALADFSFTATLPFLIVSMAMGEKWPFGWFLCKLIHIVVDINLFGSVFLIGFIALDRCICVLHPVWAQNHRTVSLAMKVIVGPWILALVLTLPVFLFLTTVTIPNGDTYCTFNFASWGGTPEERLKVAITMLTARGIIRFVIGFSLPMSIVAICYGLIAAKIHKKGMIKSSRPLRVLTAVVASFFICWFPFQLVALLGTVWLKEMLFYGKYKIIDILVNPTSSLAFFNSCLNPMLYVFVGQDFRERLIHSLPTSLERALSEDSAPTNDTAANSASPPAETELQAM
In short: as §1

COc1cc(-n2c(=O)c(NC(=O)c3ccc(OC(F)F)cc3)c(-c3c(F)cc(OC)cc3F)n2C)nc(C2(O)CCC2)c1 [Example 100, N-[5-(2,6-difluoro-4-methoxyphenyl)-2-[6-(1-hydroxycyclobutyl)-4-methoxypyridin-2-yl]-1-methyl-3-oxo-2,3-dihydro-1H-pyrazol-4-yl]-4-(difluoromethoxy)benzamide]
EC50 (human FPR1): 1600 nM | EC50 (human FPR2): 2 nM

COc1ccc(-c2c(NC(=O)c3ccc(OC(F)F)cc3)c(=O)n(-c3ncccc3Cl)n2C)c(F)c1 [Example 262, N-[2-(3-chloropyridin-2-yl)-5-(2-fluoro-4-methoxyphenyl)-1-methyl-3-oxo-2,3-dihydro-1H-pyrazol-4-yl]-4-(difluoromethoxy)benzamide]
EC50 (human FPR1): 2000 nM | EC50 (human FPR2): 25 nM

CNC(=O)[C@H](C)Nc1ccc(C(F)(F)F)c(-n2c(=O)c(NC(=O)c3ccc(OC(F)F)cc3)c(-c3c(F)cc(OC)cc3F)n2C)n1 [Example 232, N-[5-(2,6-difluoro-4-methoxyphenyl)-1-methyl-2-(6-{[(1S)-1-(methylcarbamoyl)ethyl]amino}-3-(trifluoromethyl)pyridin-2-yl)-3-oxo-2,3-dihydro-1H-pyrazol-4-yl]-4-(difluoromethoxy)benzamide]
EC50 (human FPR1): > 10000 nM | EC50 (human FPR2): 5 nM

COc1ccc(-c2c(NC(=O)c3ccc(OC(F)F)cc3)c(=O)n(-c3ncccc3C(F)(F)F)n2C)cc1F [Example 293, 4-(difluoromethoxy)-N-[5-(3-fluoro-4-methoxyphenyl)-1-methyl-3-oxo-2-[3-(trifluoromethyl)pyridin-2-yl]-2,3-dihydro-1H-pyrazol-4-yl]benzamide]
EC50 (human FPR1): 1200 nM | EC50 (human FPR2): 9 nM

CNc1ccc(C(F)(F)F)c(-n2c(=O)c(NC(=O)c3ccc(OC(F)F)cc3)c(-c3c(F)cc(OC)cc3F)n2C)n1 [Example 227, N-[5-(2,6-difluoro-4-methoxyphenyl)-1-methyl-2-[6-(methylamino)-3-(trifluoromethyl)pyridin-2-yl]-3-oxo-2,3-dihydro-1H-pyrazol-4-yl]-4-(difluoromethoxy)benzamide]
EC50 (human FPR1): > 5000 nM | EC50 (human FPR2): 3 nM

COc1cc(F)c(-c2c(NC(=O)c3ccc(OC(F)F)cc3)c(=O)n(-c3cc(OCC4(C)COC4)cc(C)n3)n2C)c(F)c1 [Example 327, N-(5-(2,6-Difluoro-4-methoxyphenyl)-1-methyl-2-(6-methyl-4-((3-methyloxetan-3-yl)methoxy)pyridin-2-yl)-3-oxo-2,3-dihydro-1H-pyrazol-4-yl)-4-(difluoromethoxy)benzamide]
EC50 (human FPR1): 59 nM | EC50 (human FPR2): 23 nM

COc1cc(F)c(-c2c(NC(=O)c3ccc(OC(F)F)cc3)c(=O)n(-c3cc(C)cc(C)c3)n2C)c(F)c1 [Example 109, N-[5-(2,6-difluoro-4-methoxyphenyl)-2-(3,5-dimethylphenyl)-1-methyl-3-oxo-2,3-dihydro-1H-pyrazol-4-yl]-4-(difluoromethoxy)benzamide]
EC50 (human FPR1): 8100 nM | EC50 (human FPR2): 11 nM

COc1cc(-n2c(=O)c(NC(=O)c3ccc(OC(F)F)cc3)c(-c3c(F)cc(OC)cc3F)n2C)nc(C(C)(C)O)c1 [Example 89, N-[5-(2,6-difluoro-4-methoxyphenyl)-2-[6-(2-hydroxypropan-2-yl)-4-methoxypyridin-2-yl]-1-methyl-3-oxo-2,3-dihydro-1H-pyrazol-4-yl]-4-(difluoromethoxy)benzamide]
EC50 (human FPR1): 900 nM | EC50 (human FPR2): 3 nM

COc1cc(F)c(-c2c(NC(=O)c3ccc(OC(F)F)cc3)c(=O)n(-c3nc(NCC(N)=O)ccc3C(F)(F)F)n2C)c(F)c1 [Example 226, N-(2-{6-[(carbamoylmethyl)amino]-3-(trifluoromethyl)pyridin-2-yl}-5-(2,6-difluoro-4-methoxyphenyl)-1-methyl-3-oxo-2,3-dihydro-1H-pyrazol-4-yl)-4-(difluoromethoxy)benzamide]
EC50 (human FPR1): > 10000 nM | EC50 (human FPR2): 13 nM

COc1cc(F)c(-c2c(NC(=O)c3ccc(OC(F)F)cc3)c(=O)n(-c3ncccc3Br)n2C)c(F)c1 [Example 165, N-[2-(3-bromopyridin-2-yl)-5-(2,6-difluoro-4-methoxyphenyl)-1-methyl-3-oxo-2,3-dihydro-1H-pyrazol-4-yl]-4-(difluoromethoxy)benzamide]
EC50 (human FPR1): > 10000 nM | EC50 (human FPR2): 15 nM

COc1cc(N2C[C@@H](C)O[C@@H](C)C2)nc(-n2c(=O)c(NC(=O)c3ccc(OC(F)F)cc3)c(-c3c(F)cc(OC)cc3F)n2C)c1 [Example 92, N-[5-(2,6-difluoro-4-methoxyphenyl)-2-{6-[(2R,6S)-2,6-dimethylmorpholin-4-yl]-4-methoxypyridin-2-yl}-1-methyl-3-oxo-2,3-dihydro-1H-pyrazol-4-yl]-4-(difluoromethoxy)benzamide]
EC50 (human FPR1): 2100 nM | EC50 (human FPR2): 16 nM

COc1cc(F)c(-c2c(NC(=O)c3ccc(OC(F)F)cc3)c(=O)n(-c3cccc(C4(O)CCC4)n3)n2C)c(F)c1 [Example 87, N-(5-(2,6-difluoro-4-methoxyphenyl)-2-(6-(1-hydroxycyclobutyl)pyridin-2-yl)-1-methyl-3-oxo-2,3-dihydro-1H-pyrazol-4-yl)-4-(difluoromethoxy)benzamide]
EC50 (human FPR1): 780 nM | EC50 (human FPR2): 4 nM

CNc1ccc(C(F)(F)F)c(-n2c(=O)c(NC(=O)c3ccc(OC(F)F)cc3)c(-c3c(O)cc(OC)cc3F)n2C)n1 [Example 233, 4-(difluoromethoxy)-N-[5-(2-fluoro-6-hydroxy-4-methoxyphenyl)-1-methyl-2-[6-(methylamino)-3-(trifluoromethyl)pyridin-2-yl]-3-oxo-2,3-dihydro-1H-pyrazol-4-yl]benzamide]
EC50 (human FPR1): > 10000 nM | EC50 (human FPR2): 8 nM

COc1cc(F)c(-c2c(NC(=O)c3ccc(OC(F)F)cc3)c(=O)n(-c3cc(C)cc(OCC4CCOC4)n3)n2C)c(F)c1 (stereo not drawn) [Example 352, N-(5-(2,6-Difluoro-4-methoxyphenyl)-1-methyl-2-(4-methyl-6-((tetrahydrofuran-3-yl)methoxy)pyridin-2-yl)-3-oxo-2,3-dihydro-1H-pyrazol-4-yl)-4-(difluoromethoxy)benzamide]
EC50 (human FPR1): > 10000 nM | EC50 (human FPR2): 6 nM

COc1cc(F)c(-c2c(NC(=O)c3ccc(OC(F)F)cc3)c(=O)n(-c3ncccc3N3CC(C)(O)C3)n2C)c(F)c1 [Example 211, N-[5-(2,6-difluoro-4-methoxyphenyl)-2-[3-(3-hydroxy-3-methylazetidin-1-yl)pyridin-2-yl]-1-methyl-3-oxo-2,3-dihydro-1H-pyrazol-4-yl]-4-(difluoromethoxy)benzamide]
EC50 (human FPR1): > 10000 nM | EC50 (human FPR2): 12 nM

COc1cc(F)c(-c2c(NC(=O)c3ccc(OC(F)F)cc3)c(=O)n(-c3cccc(CN(C)C)n3)n2C)c(F)c1 [Example 204, N-[5-(2,6-difluoro-4-methoxyphenyl)-2-{6-[(dimethylamino)methyl]pyridin-2-yl}-1-methyl-3-oxo-2,3-dihydro-1H-pyrazol-4-yl]-4-(difluoromethoxy)benzamide]
EC50 (human FPR1): > 10000 nM | EC50 (human FPR2): 15 nM

COc1cc(F)c(-c2c(NC(=O)c3ccc(OC(F)F)cc3)c(=O)n(-c3cccc(Cl)c3Cl)n2C)c(F)c1 [Example 34, N-[2-(2,3-dichlorophenyl)-5-(2,6-difluoro-4-methoxyphenyl)-1-methyl-3-oxo-2,3-dihydro-1H-pyrazol-4-yl]-4-(difluoromethoxy)benzamide]
EC50 (human FPR1): 1900 nM | EC50 (human FPR2): 4 nM

COc1cc(F)c(-c2c(NC(=O)c3ccc(OC(F)(F)F)cc3)c(=O)n(-c3ncccc3F)n2C)c(F)c1 [Example 32, N-[5-(2,6-difluoro-4-methoxyphenyl)-2-(3-fluoropyridin-2-yl)-1-methyl-3-oxo-2,3-dihydro-1H-pyrazol-4-yl]-4-(trifluoromethoxy)benzamide]
EC50 (human FPR1): 6500 nM | EC50 (human FPR2): 8 nM

COc1cccc(-n2c(=O)c(NC(=O)c3ccc(OC(F)F)cc3)c(-c3ccc(OC(F)F)cc3)n2C)n1 [Example 315, 4-(difluoromethoxy)-N-{5-[4-(difluoromethoxy)phenyl]-2-(6-methoxypyridin-2-yl)-1-methyl-3-oxo-2,3-dihydro-1H-pyrazol-4-yl}benzamide]
EC50 (human FPR1): 290 nM | EC50 (human FPR2): 30 nM

COc1cc(F)c(-c2c(NC(=O)c3ccc(OC(F)F)cc3)c(=O)n(-c3cccc(C4CC4)n3)n2C)c(F)c1 [Example 45, N-[2-(6-cyclopropylpyridin-2-yl)-5-(2,6-difluoro-4-methoxyphenyl)-1-methyl-3-oxo-2,3-dihydro-1H-pyrazol-4-yl]-4-(difluoromethoxy)benzamide]
EC50 (human FPR1): 2800 nM | EC50 (human FPR2): 6 nM

COC(=O)c1cc(Cl)cc(-n2c(=O)c(NC(=O)c3ccc(OC(F)F)cc3)c(-c3c(F)cc(OC)cc3F)n2C)c1 [Example 120, methyl 3-chloro-5-[3-(2,6-difluoro-4-methoxyphenyl)-4-[4-(difluoromethoxy)benzamido]-2-methyl-5-oxo-2,5-dihydro-1H-pyrazol-1-yl]benzoate]
EC50 (human FPR1): 6000 nM | EC50 (human FPR2): 4 nM
